Read-outs that look alike come from different tables or passages of the source. A value given as a limit tells only on which side of the number the result lay.

For this assay, the system named is compound-treated mice. The assay can be described thus: Neuropharmacological assay (SmartCube): behavioral activity signature and minimal effective dose. Type of assay: in vivo. To be noted: for minimal effective dose: Mus musculus, ip; for AD: ADHD (probability of activity signature) / AG: analgesic (probability of activity signature) / AX: anxiolytic (probability of activity signature) / CE: cognitive enhancer (probability of activity signature) / DP: anti-depressant (probability of activity signature) / MS: mood stabilizer (probability of activity signature) / PS: anti-psychotic (probability of activity signature) / SD: sedative hypnotic (probability of activity signature) / UN: uncharacterized CNS activity (probability of activity signature): i.p. 15 min before test, most efficacious dose(s). An outline of the steps:
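Video-recorded behavior is compared algorithmically against a reference-compound database, yielding class probabilities (best dose reported). Compounds given i.p. in NMP/PEG/propylene glycol 15 min pre-test at 3 doses; potency as MED, the dose (mpk, range usually 0.3–30) reaching ≥50% total activity.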

[1] abbreviates: MED = dose having 50% or more total activity, read-out: Potency: minimal effective dose (MED).
Setting [2] is: MED = dose having 50% or more total activity, read-out: Potency: minimal effective dose (MED), binned.

On to `Cc1ccc2c(c1)[C@H](N)[C@@H](C)OC2` [Example 155], for which the “AD: ADHD (probability of activity signature)” value (shortened to “AD: ADHD”) is “+ (LOQ ≤ + <5%)”, the “AG: analgesic (probability of activity signature)” value (“AG: analgesic” below) is given as “++ (5% ≤ ++ <25%)”, the “AX: anxiolytic (probability of activity signature)” value (shortened to “AX: anxiolytic”) was “++++ (50% ≤ ++++)” and the “CE: cognitive enhancer (probability of activity signature)” value (from here on “CE: cognitive enhancer”) is reported as “++ (5% ≤ ++ <25%)”. In addition, the “DP: anti-depressant (probability of activity signature)” value (“DP: anti-depressant” for short) is on record as “++ (5% ≤ ++ <25%)”, the “MS: mood stabilizer (probability of activity signature)” value (from here on “MS: mood stabilizer”) is “+ (LOQ ≤ + <5%)”, the “PS: anti-psychotic (probability of activity signature)” value (from here on “PS: anti-psychotic”) is recorded as “++ (5% ≤ ++ <25%)” and the “SD: sedative hypnotic (probability of activity signature)” value (“SD: sedative hypnotic” for short) is “++ (5% ≤ ++ <25%)”. Moreover, the “UN: uncharacterized CNS activity (probability of activity signature)” value (“UN: uncharacterized CNS activity” below) is reported as “++ (5% ≤ ++ <25%)”. In addition, under setting [1], the minimal effective dose fell in the range of 3 to 10 mg/kg.

For the compound `Cc1ccc2c(c1)[C@@H](N)[C@H](C)OC2` [Example 156], the “AD: ADHD” value is “+ (LOQ ≤ + <5%)”, the “AG: analgesic” value is on record as “++ (5% ≤ ++ <25%)”, the “AX: anxiolytic” value was “++ (5% ≤ ++ <25%)” and the “CE: cognitive enhancer” value is given as “++ (5% ≤ ++ <25%)”. For the same compound, the “DP: anti-depressant” value was “+ (LOQ ≤ + <5%)”, the “MS: mood stabilizer” value was “+ (LOQ ≤ + <5%)”, the “PS: anti-psychotic” value is listed as “+ (LOQ ≤ + <5%)” and the “SD: sedative hypnotic” value is listed as “+ (LOQ ≤ + <5%)”. In addition, the “UN: uncharacterized CNS activity” value was “+++ (25% ≤ +++ <50%)”. Under setting [1], the minimal effective dose was in the range of 3 to 10 mg/kg.

Consider `C[C@H]1OCc2cccc(Cl)c2[C@@H]1N` [Example 159], for which the “AD: ADHD” value was “+ (LOQ ≤ + <5%)”, the “AG: analgesic” value was “+ (LOQ ≤ + <5%)”, the “AX: anxiolytic” value is given as “+++ (25% ≤ +++ <50%)” and the “CE: cognitive enhancer” value was “+ (LOQ ≤ + <5%)”. Moreover, the “DP: anti-depressant” value is recorded as “+++ (25% ≤ +++ <50%)”, the “MS: mood stabilizer” value is reported as “+ (LOQ ≤ + <5%)”, the “PS: anti-psychotic” value is listed as “+ (LOQ ≤ + <5%)” and the “SD: sedative hypnotic” value was “+ (LOQ ≤ + <5%)”. The “UN: uncharacterized CNS activity” value is “++ (5% ≤ ++ <25%)”. Moreover, the minimal effective dose under setting [2] lay in the range of 3 to 10 mg/kg.

As to `CC[C@H]1OCc2ccc(F)cc2[C@@H]1N` [Example 181], the “AD: ADHD” value is on record as “+ (LOQ ≤ + <5%)”, the “AG: analgesic” value is “++ (5% ≤ ++ <25%)”, the “AX: anxiolytic” value was “++ (5% ≤ ++ <25%)” and the “CE: cognitive enhancer” value is reported as “++ (5% ≤ ++ <25%)”. The “DP: anti-depressant” value is reported as “+ (LOQ ≤ + <5%)”, the “MS: mood stabilizer” value is reported as “+ (LOQ ≤ + <5%)”, the “PS: anti-psychotic” value was “++ (5% ≤ ++ <25%)” and the “SD: sedative hypnotic” value was “+++ (25% ≤ +++ <50%)”. The “UN: uncharacterized CNS activity” value was “++++ (50% ≤ ++++)”. In addition, under setting [2], the minimal effective dose is less than 3 mg/kg.

Regarding `CC[C@@H]1OCc2ccc(F)cc2[C@H]1N` [Example 182], the “AD: ADHD” value was “+ (LOQ ≤ + <5%)”, the “AG: analgesic” value is “+ (LOQ ≤ + <5%)”, the “AX: anxiolytic” value is reported as “++ (5% ≤ ++ <25%)” and the “CE: cognitive enhancer” value is given as “++ (5% ≤ ++ <25%)”. The “DP: anti-depressant” value is “++ (5% ≤ ++ <25%)”, the “MS: mood stabilizer” value is “+ (LOQ ≤ + <5%)”, the “PS: anti-psychotic” value is recorded as “+++ (25% ≤ +++ <50%)” and the “SD: sedative hypnotic” value is “+ (LOQ ≤ + <5%)”. Moreover, the “UN: uncharacterized CNS activity” value is “++++ (50% ≤ ++++)”. For the same compound, the minimal effective dose under setting [2] was less than 3 mg/kg.

For the compound `C[C@H]1OCc2ccc(F)cc2[C@@H]1N` [Example 183], the “AD: ADHD” value is given as “+ (LOQ ≤ + <5%)”, the “AG: analgesic” value is “++ (5% ≤ ++ <25%)”, the “AX: anxiolytic” value is “++ (5% ≤ ++ <25%)” and the “CE: cognitive enhancer” value is “++ (5% ≤ ++ <25%)”. Further, the “DP: anti-depressant” value is recorded as “++ (5% ≤ ++ <25%)”, the “MS: mood stabilizer” value was “+ (LOQ ≤ + <5%)”, the “PS: anti-psychotic” value is recorded as “++ (5% ≤ ++ <25%)” and the “SD: sedative hypnotic” value is on record as “++ (5% ≤ ++ <25%)”. Besides, the “UN: uncharacterized CNS activity” value is “++++ (50% ≤ ++++)”. Under setting [2], the minimal effective dose was less than 3 mg/kg.

As to `C[C@@H]1OCc2ccc(F)cc2[C@H]1N` [Example 184], the “AD: ADHD” value was “+ (LOQ ≤ + <5%)”, the “AG: analgesic” value was “+ (LOQ ≤ + <5%)”, the “AX: anxiolytic” value is recorded as “++ (5% ≤ ++ <25%)” and the “CE: cognitive enhancer” value is given as “++ (5% ≤ ++ <25%)”. Further, the “DP: anti-depressant” value is “++ (5% ≤ ++ <25%)”, the “MS: mood stabilizer” value was “+ (LOQ ≤ + <5%)”, the “PS: anti-psychotic” value is listed as “++ (5% ≤ ++ <25%)” and the “SD: sedative hypnotic” value is on record as “+ (LOQ ≤ + <5%)”. In addition, the “UN: uncharacterized CNS activity” value is on record as “++++ (50% ≤ ++++)”. In addition, the “Potency: minimal effective dose (MED), binned” value (MED = dose having 50% or more total activity) is listed as “A (≤3 mpk)”.

As to `C[C@@H]1OCc2ccc(F)cc2[C@@H]1N` [Example 185], the “AD: ADHD” value is given as “+ (LOQ ≤ + <5%)”, the “AG: analgesic” value was “++ (5% ≤ ++ <25%)”, the “AX: anxiolytic” value was “+++ (25% ≤ +++ <50%)” and the “CE: cognitive enhancer” value was “++ (5% ≤ ++ <25%)”. For the same compound, the “DP: anti-depressant” value is given as “+ (LOQ ≤ + <5%)”, the “MS: mood stabilizer” value is “+ (LOQ ≤ + <5%)”, the “PS: anti-psychotic” value was “++ (5% ≤ ++ <25%)” and the “SD: sedative hypnotic” value is given as “+ (LOQ ≤ + <5%)”. For the same compound, the “UN: uncharacterized CNS activity” value is on record as “++++ (50% ≤ ++++)”. Besides, under setting [2], the minimal effective dose was less than 3 mg/kg.

With `C[C@H]1OCc2ccc(F)cc2[C@H]1N` [Example 186], the “AD: ADHD” value is recorded as “+ (LOQ ≤ + <5%)”, the “AG: analgesic” value is given as “++ (5% ≤ ++ <25%)”, the “AX: anxiolytic” value is “++ (5% ≤ ++ <25%)” and the “CE: cognitive enhancer” value is recorded as “++ (5% ≤ ++ <25%)”. The “DP: anti-depressant” value is “++ (5% ≤ ++ <25%)”, the “MS: mood stabilizer” value is reported as “+ (LOQ ≤ + <5%)”, the “PS: anti-psychotic” value is recorded as “++ (5% ≤ ++ <25%)” and the “SD: sedative hypnotic” value is recorded as “+ (LOQ ≤ + <5%)”. Further, the “UN: uncharacterized CNS activity” value was “+++ (25% ≤ +++ <50%)”. For the same compound, the minimal effective dose under setting [2] was 3 to 10 mg/kg.

Take `CC[C@@H]1OCc2ccc(F)cc2[C@@H]1N` [Example 187]: the “AD: ADHD” value is “+ (LOQ ≤ + <5%)”, the “AG: analgesic” value is on record as “++ (5% ≤ ++ <25%)”, the “AX: anxiolytic” value is recorded as “++ (5% ≤ ++ <25%)” and the “CE: cognitive enhancer” value was “++ (5% ≤ ++ <25%)”. In addition, the “DP: anti-depressant” value was “+ (LOQ ≤ + <5%)”, the “MS: mood stabilizer” value is on record as “+ (LOQ ≤ + <5%)”, the “PS: anti-psychotic” value was “+++ (25% ≤ +++ <50%)” and the “SD: sedative hypnotic” value is “+ (LOQ ≤ + <5%)”. In addition, the “UN: uncharacterized CNS activity” value is recorded as “++++ (50% ≤ ++++)”. The minimal effective dose under setting [2] is less than 3 mg/kg.

In the case of `CC[C@H]1OCc2ccc(F)cc2[C@H]1N` [Example 188], the “AD: ADHD” value was “+ (LOQ ≤ + <5%)”, the “AG: analgesic” value is “++ (5% ≤ ++ <25%)”, the “AX: anxiolytic” value was “++ (5% ≤ ++ <25%)” and the “CE: cognitive enhancer” value is “+ (LOQ ≤ + <5%)”. Besides, the “DP: anti-depressant” value is given as “++ (5% ≤ ++ <25%)”, the “MS: mood stabilizer” value is recorded as “+ (LOQ ≤ + <5%)”, the “PS: anti-psychotic” value is given as “++ (5% ≤ ++ <25%)” and the “SD: sedative hypnotic” value was “+ (LOQ ≤ + <5%)”. Moreover, the “UN: uncharacterized CNS activity” value is “++++ (50% ≤ ++++)”. For the same compound, the minimal effective dose under setting [2] is less than 3 mg/kg.

For the compound `Cc1ccc2c(c1)CO[C@@H](C)[C@H]2N` [Example 189], the “AD: ADHD” value is listed as “+ (LOQ ≤ + <5%)”, the “AG: analgesic” value is listed as “++ (5% ≤ ++ <25%)”, the “AX: anxiolytic” value is “++ (5% ≤ ++ <25%)” and the “CE: cognitive enhancer” value is “++ (5% ≤ ++ <25%)”. Besides, the “DP: anti-depressant” value is “++ (5% ≤ ++ <25%)”, the “MS: mood stabilizer” value is on record as “+ (LOQ ≤ + <5%)”, the “PS: anti-psychotic” value is on record as “++ (5% ≤ ++ <25%)” and the “SD: sedative hypnotic” value is given as “+ (LOQ ≤ + <5%)”. The “UN: uncharacterized CNS activity” value was “+++ (25% ≤ +++ <50%)”. In addition, the minimal effective dose under setting [2] fell in the range of 10 to 30 mg/kg.

As to `Cc1ccc2c(c1)CO[C@H](C)[C@@H]2N` [Example 190], the “AD: ADHD” value is reported as “+ (LOQ ≤ + <5%)”, the “AG: analgesic” value was “+ (LOQ ≤ + <5%)”, the “AX: anxiolytic” value is “++ (5% ≤ ++ <25%)” and the “CE: cognitive enhancer” value is reported as “++ (5% ≤ ++ <25%)”. Moreover, the “DP: anti-depressant” value is recorded as “+ (LOQ ≤ + <5%)”, the “MS: mood stabilizer” value is recorded as “+ (LOQ ≤ + <5%)”, the “PS: anti-psychotic” value is reported as “++ (5% ≤ ++ <25%)” and the “SD: sedative hypnotic” value was “++ (5% ≤ ++ <25%)”. For the same compound, the “UN: uncharacterized CNS activity” value is reported as “++++ (50% ≤ ++++)”. For the same compound, under setting [2], the minimal effective dose fell in the range of 3 to 10 mg/kg.

The minimal effective dose is the lowest level tested that produced the effect sought.

The record behind these values is patent publication US11077090B2, “Compounds and compositions and uses thereof” (Sunovion Pharmaceuticals Inc., priority 2016, dated 2021).
